Earlier results, collected in patent publication US20130150323A1, “USE OF ORAL HEPARIN PREPARATIONS TO TREAT URINARY TRACT DISEASES AND CONDITIONS” (Urigen Pharmaceuticals, Inc, priority 2010, published 2013).
Read-outs that look alike come from different tables or passages of the source.

Tests used:
IC patients [1] = conditions: intravesical instillations
[2] = tested on: interstitial cystitis patients; conditions: oral, double blind studies, 16% on placebo
[3] = oral
[4] = tested on: bladder mucus layer of normal human volunteers; conditions: intravesically administered; 0.4 M potassium solution
IC patients [5] = conditions: intravesical

In the case of O=S(=O)(O)CCS [Mesnex, mesna], the “frequency of adverse events (all AEs)” value (cancer patients; IV) is given as 85% and the “frequency of adverse events (all AEs)” value (cancer patients; oral) is given as 89%.

In the case of C[S+](C)[O-] [DMSO, dimethylsulfoxide], the “IC patients treated with benefit” value (IC patients [1]) is given as about 50%.

For pentosanpolysulfate, the “good response, patients on active drug” value [2] is given as 34% and the “availability of this drug orally” value [3] is given as 2-3%.

For heparin, the “effect on protamine chemical injury of mucus layer (potassium absorption, urgency and pain)” value [4] is given as “reversed” and the “patients treated in whom effective” value (IC patients [5]) is given as “approximately 50%”.
